Data published in the Bradley open melting point set (2014).

SMILES | melting point [°C]
CC(=O)c1cccc(N=C=S)c1 [3-acetylphenyl isothiocyanate] | 24
CC(N)CCc1ccccc1 (stereo not drawn) [3-amino-1-phenylbutane] | -50
NC1=C(c2ccccc2)C(=O)c2ccccc21 [3-amino-2-phenylindenone] | 271
Nc1n[nH]c(-c2ccccc2)c1Br [3-amino-4-bromo-5-phenyl-1h-pyrazole] | 114
Cc1ccc(B(O)O)cc1N [3-amino-4-methylbenzeneboronic acid] | 250
Nc1cccc(C(=O)O)c1 [3-aminobenzoic acid] | 175
Nc1cccc(O)c1 [3-aminophenol] | 124
Nc1cnc2ccccc2c1 [3-aminoquinoline] | 94
O=C(O)c1cccc(C(=O)c2ccccc2)c1 [3-benzoylbenzoic acid] | 164
O=C(O)c1cccc(OCc2ccccc2)c1 [3-benzyloxybenzoic acid] | 134
O=c1on(-c2ccccc2)c(Br)c1-c1ccccc1 [3-bromo-2,4-diphenylisoxazol-5(2H)-one] | 166
COc1ccc(C(=O)O)cc1Br [3-bromo-4-methoxybenzoic acid] | 220
COc1ccc(C#N)cc1Br [3-bromo-4-methoxybenzonitrile] | 122
OB(O)c1cccc(Br)c1 [3-bromobenzeneboronic acid] | 166
Brc1cnc2ccccc2c1 [3-bromoquinoline] | 14
Cc1cccc(Br)c1 [3-bromotoluene] | -40
C#CCCO [3-butyn-1-ol] | -63
Cc1c(N)cccc1Cl [3-chloro-2-methylaniline] | 2
Clc1nsnc1-c1cccnc1 [3-chloro-4-(3-pyridyl)-1,2,5-thiadiazole] | 56
N#Cc1ccncc1Cl [3-chloro-4-cyanopyridine] | 73
OB(O)c1ccc(F)c(Cl)c1 [3-chloro-4-fluorobenzeneboronic acid] | 258
Cc1ccc(B(O)O)cc1Cl [3-chloro-4-methylbenzeneboronic acid] | 227
Nc1cccc(Cl)c1 [3-chloroaniline] | -10
N#Cc1cccc(Cl)c1 [3-chlorobenzonitrile] | 41
Clc1cccc(-c2ccccc2)c1 [3-chlorobiphenyl] | 18
O=C(O)Cc1cccc(Cl)c1 [3-chlorophenylacetic acid] | 79

SMILES | melting point [°C]
O=S(=O)(Cl)Cc1cccc(Cl)c1 [3-chlorophenylmethanesulfonyl chloride] | 71
N#Cc1cccnc1Oc1ccccc1 [3-cyano-2-phenoxypyridine] | 108
N#Cc1cccc(C(=O)O)c1 [3-cyanobenzoic acid] | 222
CCCCCCCC(=O)CC [3-decanone] | -4
CCc1nnc2cc(-c3ccccc3)[nH]n12 [3-ethyl-6-phenyl-5H-pyrazolo[5,1-c][1,2,4]triazole] | 189
Cc1c(F)ccc([N+](=O)[O-])c1C [3-fluoro-1,2-dimethyl-6-nitrobenzene] | 41
[O-][n+]1cccc(F)c1 [3-fluoropyridine n-oxide] | 67
Cc1occc(=O)c1O [3-hydroxy-2-methyl-4-pyrone] | 163
COc1ccc(OC)c2c1C(=O)OC2O (stereo not drawn) [3-hydroxy-4,7-dimethoxy-2-benzofuran-1(3H)-one] | 192
COc1cc(OC)c2c(c1)C(O)OC2=O (stereo not drawn) [3-hydroxy-5,7-dimethoxy-2-benzofuran-1(3H)-one] | 185
O=C(c1ccccc1)c1cccc(O)c1 [3-hydroxybenzophenone] | 114
OCc1cccc(O)c1 [3-hydroxybenzyl_alcohol] | 72
N#CCCO [3-hydroxypropionitrile] | -46
N#Cc1cccc(I)c1 [3-iodobenzonitrile] | 40
CC(C)c1cccc(B(O)O)c1 [3-isopropylbenzeneboronic acid] | 78
COC1OC(=O)c2ccccc21 (stereo not drawn) [3-methoxy-2-benzofuran-1(3H)-one] | 44
COc1cccc(C(=O)O)c1 [3-methoxybenzoic acid] | 106
COc1ccc2c(c1)CC2O (stereo not drawn) [3-methoxybicyclo[4.2.0]octa-1,3,5-trien-7-ol] | 38
Cc1cccc([N+](=O)[O-])c1C [3-nitro-1,2-dimethylbenzene] | 9
Cc1cccc([N+](=O)[O-])c1C [3-nitro-o-xylene] | 14
O=[N+]([O-])c1cccc(O)c1 [3-nitrophenol] | 97
O=C(O)CCP(=O)(O)O [3-phosphonopropionic acid] | 164
CC(=O)c1ccc(N2CCNCC2)cc1 [4'-(1-piperazinyl)acetophenone] | 96
CC(=O)c1ccc(Br)cc1 [4'-bromoacetophenone] | 51
Clc1ccc(C(c2ccc(Cl)cc2)C(Cl)(Cl)Cl)cc1 [4,4'-DDT] | 110
Fc1ccc(-c2ccc(F)cc2)cc1 [4,4'-difluorobiphenyl] | 88

The next lines start with the values.

melting point [°C] | SMILES
-18 | COc1cccc(O)c1 [3-methoxyphenol]
125 | Cc1ccn(C(N)=O)n1 [3-methyl-1h-pyrazole-1-carboxamide]
-92 | CC(=O)C(C)C [3-methyl-2-butanone]
-135 | CC=C(C)CC [3-methyl-cis-2-pentene]
-129 | CC=C(/C)CCC [3-methyl-trans-2-hexene]
5 | Cc1cccc(-c2ccccc2)c1 [3-methylbiphenyl]
-121 | CCCCC(C)CC (stereo not drawn) [3-methylheptane]
139 | Cc1cccc(C(=O)NCC(=O)O)c1 [3-methylhippuric acid]
-82 | C=Cc1cccc(C)c1 [3-methylstyrene]
67 | CCCCCCSc1nc[nH]n1 [3-n-hexylthio-1,2,4-triazole]
202 | Nc1ccc(/C=C/c2ccc([N+](=O)[O-])cc2)c([N+](=O)[O-])c1 [3-nitro-4-[(E)-2-(4-nitrophenyl)ethenyl]aniline]
61 | O=[N+]([O-])c1cccc(S(=O)(=O)Cl)c1 [3-nitrobenzenesulfonyl chloride]
142 | O=C(O)c1cccc([N+](=O)[O-])c1 [3-nitrobenzoic acid]
32 | O=[N+]([O-])c1cccc(CO)c1 [3-nitrobenzyl_alcohol]
219 | O=C1NC(=O)c2c1cccc2[N+](=O)[O-] [3-nitrophthalimide]
-104 | CCC#CCCCC [3-octyne]
140 | CC(CCC(=O)O)C1CCC2C3CCC4CC(=O)CCC4(C)C3CCC12C (stereo not drawn) [3-oxocholan-24-oic acid]
102 | CC(=O)OC1CC2C(CCC3(C)C(C(C)CCCC(C)C)CCC23)C2(C)CCC(=O)C=C12 (stereo not drawn) [3-oxocholest-4-en-6-yl acetate]
116 | O=C1CC(C(=O)O)c2ccccc21 (stereo not drawn) [3-oxoindane-1-carboxylic acid]
-39 | CCC(=O)CC [3-pentanone]
58 | OCC(O)COc1ccccc1 (stereo not drawn) [3-phenoxy-1,2-propanediol]
51 | O=C1C=C(c2ccccc2)c2ccccc21 [3-phenyl-1H-inden-1-one]
135 | N#CC1(C#N)C=C(c2ccccc2)c2ccccc21 [3-phenyl-1H-indene-1,1-dicarbonitrile]

melting point [°C] | SMILES
-42 | O=CCCc1ccccc1 [3-phenylpropionaldehyde]
49 | O=C(O)CCc1ccccc1 [3-phenylpropionic acid]
149 | CN1N=C(C(C)(C)C)CC1=O [3-tert-butyl-1-methyl-2-pyrazolin-5-one]
13 | CCCCCCCCC(=O)CC [3-undecanone]
128 | C=Cc1cccc(B(O)O)c1 [3-vinylbenzeneboronic acid]
128 | CC(=O)C(=Cc1ccc(-c2ccccc2[N+](=O)[O-])o1)C(C)=O [3-{[5-(2-nitrophenyl)-2-furyl]methylene}pentane-2,4-dione]
140 | CC(=O)Nc1ccc(C(C)=O)cc1Br [4'-acetamido-3'-bromoacetophenone]
248 | CC(=O)Nc1c(Br)cc(N)cc1Br [4'-amino-2',6'-dibromoacetanilide]
143 | CCc1cc(Br)ccc1NC(C)=O [4'-bromo-2'-ethylacetanilide]
118 | CC(=O)Nc1ccc(Br)c(C(F)(F)F)c1 [4'-bromo-3'-(trifluoromethyl)acetanilide]
124 | CC(=O)Nc1ccc(Br)c(Cl)c1 [4'-bromo-3'-chloroacetanilide]
156 | CC(=O)Nc1ccc(Cl)cc1F [4'-chloro-2'-fluoroacetanilide]
29 | CC(=O)c1ccc(Cl)cc1O [4'-chloro-2'-hydroxyacetophenone]
32 | CC(=O)c1ccc(F)cc1O [4'-fluoro-2'-hydroxyacetophenone]
38 | COc1ccc(C(C)=O)cc1 [4'-methoxyacetophenone]
103 | COc1ccc(-c2ccc(S(=O)(=O)Cl)cc2)cc1 [4'-methoxybiphenyl-4-sulfonyl chloride]
-19 | CC(=O)c1ccc(C)cc1 [4'-methylacetophenone]
226 | CCCc1ccc(-c2ccc(C(=O)O)cc2)cc1 [4'-n-propylbiphenyl-4-carboxylic acid]
216 | CC(=O)Nc1ccc([N+](=O)[O-])cc1 [4'-nitroacetanilide]
44 | CC(O)CCc1ccc(CCC(C)O)cc1 (stereo not drawn) [4,4'-benzene-1,4-diyldibutan-2-ol]
177 | Nc1ccc(S(=O)(=O)c2ccc(N)cc2)cc1 [4,4'-diaminodiphenyl sulfone]
29 | Cc1ccc(Cc2ccc(C)cc2)cc1 [4,4'-dimethyldiphenylmethane]
173 | CC(CCC(=O)O)(c1ccc(O)cc1)c1ccc(O)cc1 [4,4-bis(4-hydroxyphenyl)valeric acid]
